Here are results for 11 compounds from PubChem BioAssay (NCI).

Test systems include LXFL 529 NSCLC; SNB-78 CNS; DMS 114 small cell lung; NCI/ADR-RES ovarian; HS 578T breast; BT-549 breast; DU-145 prostate; T-47D breast; MCF7 breast; MDA-MB-435.
Common to all, as to assay: NCI-60 cell line screen, 48 h

Values joined by “and” are separate entries in the source; they are usually repeats but may differ in a detail not shown here. Equal entries are not always repeated.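 Briefly, cells in 96-well plates were exposed to five compound concentrations for 48 h, and endpoints were estimated by linear interpolation. Abbreviation: GI50, concentration required for 50% inhibition of growth. TGI: concentration producing complete growth inhibition.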

Turning to `COC(=O)C(Cc1nc2ccc(Cl)cc2[nH]c1=O)/C(=N\N)C(=O)Nc1cc(C)c(Cl)cc1S(=O)(=O)O` (stereo not given), the TGI with LXFL 529 NSCLC, in the test on SNB-78 CNS and in the test on DMS 114 small cell lung was > 100 µM each time.

Turning to `Cc1nn(-c2ccc(Cl)cc2)c2nc3c(nc12)C(=O)c1ccccc1-3`, the GI50 was > 100 µM in the test with NCI/ADR-RES ovarian; 15.7 µM with HS 578T breast; > 100 µM in the test with BT-549 breast; > 100 µM in the test on DU-145 prostate; 17.4 µM in the test with T-47D breast; 51.9 µM in the test on MCF7 breast. Besides, the GI50 in the test on MDA-MB-435 was > 100 µM. Moreover, the TGI in the test on NCI/ADR-RES ovarian was > 100 µM; in the test on HS 578T breast, > 100 µM; with BT-549 breast, > 100 µM; with DU-145 prostate, > 100 µM; in the test with T-47D breast, 65.6 µM; in the test on MCF7 breast, > 100 µM. In addition, in the test with MDA-MB-435, the TGI is > 100 µM.

Regarding `COc1ccc(C(=O)/C=C/c2cc(-c3cc(OC)c(OC)c(OC)c3)n[nH]2)cc1OC`, the GI50 in the test with NCI/ADR-RES ovarian is 3.13 µM; with HS 578T breast, 2.57 µM; with BT-549 breast, 1.44 µM; in the test on DU-145 prostate it was 0.55 µM; in the test on T-47D breast it was 1.63 µM; with MCF7 breast, 0.482 µM. In addition, the GI50 in the test on MDA-MB-435 is 1.34 µM. Also, the TGI worked out at 15.7 µM in the test with NCI/ADR-RES ovarian; 8.2 µM in the test with HS 578T breast; 2.9 µM in the test with BT-549 breast; 1.84 µM in the test with DU-145 prostate; 4.36 µM in the test with T-47D breast; 1.95 µM in the test with MCF7 breast. Further, the TGI in the test with MDA-MB-435 was determined as 2.71 µM.

On to `C=C(Cl)C(Br)(CCl)CCC(Br)C(C)(C)Cl` (stereo not given), for which the GI50 is 4.39 µM in the test with NCI/ADR-RES ovarian; 2.62 µM in the test on HS 578T breast; 1.99 µM in the test with BT-549 breast; 30.1 µM with T-47D breast; 4.08 µM in the test with MCF7 breast; 2.13 µM in the test with MDA-MB-435. For the same compound, the TGI in the test with NCI/ADR-RES ovarian is 10.9 µM; in the test on HS 578T breast, > 27.9 µM; in the test on BT-549 breast it was 3.83 µM and 4.53 µM; in the test with DU-145 prostate, 26.7 µM; in the test on MCF7 breast it was 7.13 µM and 15.6 µM; with MDA-MB-435 it was 8.65 µM and 4.27 µM.

With `COc1cc2c3c(n(C)c(=O)c2cc1OC)-c1cc2c(cc1/C3=C\CN)OCO2`, the GI50 with NCI/ADR-RES ovarian is 1.21 µM; in the test on HS 578T breast it was 34.9 µM; with DU-145 prostate, 0.346 µM; in the test on T-47D breast, 0.0176 µM; with MCF7 breast, 0.236 µM; with MDA-MB-435 it was 0.819 µM. For the same compound, the TGI in the test on NCI/ADR-RES ovarian is 68.7 µM; with HS 578T breast, > 100 µM; in the test on BT-549 breast, > 100 µM; in the test on DU-145 prostate it was 37.1 µM; with T-47D breast, 0.639 µM; in the test with MCF7 breast it was > 31.6 µM. Besides, the TGI in the test with MDA-MB-435 was 33.8 µM.

On to `CCOC(=O)Nc1ccc(-c2nc(-c3cccc(OCCN4CCOCC4)c3)c(-c3ccnc(Br)c3)[nH]2)cc1`, for which the GI50 was 3.39 µM in the test on NCI/ADR-RES ovarian; 1.55 µM with HS 578T breast; 2.9 µM in the test with BT-549 breast; 4.05 µM in the test with DU-145 prostate; 2.74 µM in the test on T-47D breast; 1.62 µM with MCF7 breast. Also, the GI50 with MDA-MB-435 was 3.07 µM. Also, the TGI in the test on NCI/ADR-RES ovarian is > 100 µM; in the test on HS 578T breast, 4.91 µM; with BT-549 breast, > 100 µM; with DU-145 prostate it was > 100 µM; with T-47D breast, > 100 µM; in the test on MCF7 breast it was 4.27 µM. Further, the TGI with MDA-MB-435 came to 47.6 µM.

In the case of `CC(C)Oc1ccc2cc(-c3nn(CC4CCNCC4)c4ncnc(N)c34)ccc2c1`, the GI50 with NCI/ADR-RES ovarian is 6.23 µM; with HS 578T breast, 9.4 µM; in the test with BT-549 breast, 9.6 µM; with DU-145 prostate, 14.9 µM; with T-47D breast it was 9.81 µM; in the test on MCF7 breast, 5.59 µM. The GI50 in the test with MDA-MB-435 was 3.86 µM. The TGI with NCI/ADR-RES ovarian came to 19.6 µM; in the test with HS 578T breast it was 32.2 µM; with BT-549 breast, 22 µM; with DU-145 prostate, 28.4 µM; with T-47D breast it was 24.9 µM; with MCF7 breast, 20.1 µM. Besides, the TGI with MDA-MB-435 was found to be 14.6 µM.

Turning to `Nc1nc(/C=C\c2ccc([N+](=O)[O-])s2)nc(N2CCCC2)n1`, the GI50 is 4.51 µM in the test on NCI/ADR-RES ovarian; 12.9 µM in the test on HS 578T breast; 7.17 µM in the test with BT-549 breast; 2.47 µM in the test with DU-145 prostate; 1.68 µM in the test on T-47D breast; 3.16 µM in the test on MCF7 breast. Besides, in the test with MDA-MB-435, the GI50 was 2.24 µM. For the same compound, the TGI in the test with NCI/ADR-RES ovarian stood at 23.2 µM; with HS 578T breast it was 59.7 µM; in the test with BT-549 breast, 20.9 µM; with DU-145 prostate, 16.4 µM; with T-47D breast, 14.1 µM; in the test with MCF7 breast, 16.1 µM. This compound also came in with a TGI with MDA-MB-435 of 8.09 µM.

Consider `COc1c(OC[C@H](O)CN2CCOCC2)ccc2c3n(c(=NC(=O)c4cccnc4C)nc12)CCN3`, for which the GI50 in the test on NCI/ADR-RES ovarian is > 50 µM; in the test on HS 578T breast, 0.15 µM; in the test with BT-549 breast, 0.365 µM; with DU-145 prostate, 6.72 µM; in the test on T-47D breast it was 0.0315 µM; in the test with MCF7 breast, 0.0751 µM. Also, in the test on MDA-MB-435, the GI50 is 14.1 µM. In addition, the TGI with NCI/ADR-RES ovarian was > 50 µM; in the test with HS 578T breast, > 50 µM; in the test on BT-549 breast, 46.6 µM; in the test on DU-145 prostate it was > 50 µM; in the test with T-47D breast it was 0.361 µM; with MCF7 breast, > 50 µM. Moreover, the TGI with MDA-MB-435 is > 50 µM.

For `O=C1C=CC(=O)c2cc3cc(CBr)ccc3cc21`, the GI50 in the test with NCI/ADR-RES ovarian is 6.78 µM; in the test on HS 578T breast it was 28.7 µM; in the test with BT-549 breast, 2.75 µM; with DU-145 prostate, 2.35 µM; in the test with T-47D breast, 2.12 µM; with MCF7 breast it was 9.73 µM. Further, the GI50 in the test on MDA-MB-435 is 11.8 µM. Besides, the TGI is 32.4 µM with NCI/ADR-RES ovarian; > 93.2 µM in the test with HS 578T breast; 8.96 µM in the test with BT-549 breast; 6.54 µM in the test with DU-145 prostate; > 26.2 µM in the test on T-47D breast; > 100 µM with MCF7 breast. In the test on MDA-MB-435, the TGI amounted to 33.7 µM.

Consider `COc1cc(-n2cc(-c3ccc(F)cc3)[nH]c2=O)cc(OC)c1OC`, for which the GI50 is > 100 µM in the test on NCI/ADR-RES ovarian; 69.3 µM in the test with HS 578T breast; 83.4 µM in the test with BT-549 breast; > 100 µM with DU-145 prostate; > 100 µM in the test with T-47D breast; > 100 µM in the test with MCF7 breast. In addition, in the test on MDA-MB-435, the GI50 was > 100 µM. In addition, the TGI in the test with NCI/ADR-RES ovarian, in the test on HS 578T breast, in the test with BT-549 breast, with DU-145 prostate, in the test on T-47D breast and in the test on MCF7 breast was > 100 µM throughout. The TGI in the test on MDA-MB-435 is > 100 µM.
